Results as given in publication PMC12406204 (Journal of Medicinal Chemistry, 2025).

Tests used:
[1] = molecular target: CB1R (Homo sapiens, UniProt P21554); experiment: CB1R radioligand binding competition ([3H]CP55,940); set-up: host or cells: CHO-CB1 C3 cell line; conditions: for CB1R % at 1 μM: percentage displacement of specific [3H]CP 55,940 binding at 1 μM, n = 2
[2] = molecular target: T1, CB2R (Homo sapiens, UniProt P34972); experiment: CB2R β-arrestin recruitment; assay type: cell-based; set-up: expressed in transfected cells; host or cells: HEK-293T, transient transfection (PEI); conditions: for Emax: normalized to CP 55,940
T1 sequence (P34972 whole entry): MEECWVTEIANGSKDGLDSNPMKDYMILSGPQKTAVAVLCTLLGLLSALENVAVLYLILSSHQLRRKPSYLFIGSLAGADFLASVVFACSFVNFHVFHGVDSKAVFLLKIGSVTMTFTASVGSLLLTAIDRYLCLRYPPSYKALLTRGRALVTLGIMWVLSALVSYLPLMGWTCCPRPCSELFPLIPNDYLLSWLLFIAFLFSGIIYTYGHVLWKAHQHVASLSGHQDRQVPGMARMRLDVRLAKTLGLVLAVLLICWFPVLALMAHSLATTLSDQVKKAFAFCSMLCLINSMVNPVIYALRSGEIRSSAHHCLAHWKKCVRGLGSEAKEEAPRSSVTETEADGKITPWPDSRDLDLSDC
Description: Initially we tested their ability to modify CB2R-mediated cAMP accumulation, providing insights into their functional behavior as either agonists or antagonists (Table ). Moreover, the signaling profiles of selected ligands were investigated through their impact on β-arrestin recruitment and Mitogen-Activated Protein Kinase (MAPK) phosphorylation pathway, enabling a more comprehensive evaluation of their intracellular signaling profiles (Table ).
JWH-133, a well-known nonbiased (balanced) agonist, was employed as the reference for comparing the signaling profiles of the tested compounds. An operational model analysis was applied to quantify the functional bias of each CB2R-selective agonist. This involved calculating the bias factor by comparing the signaling pathways: β-arrestin versus cAMP, MAPK versus cAMP, and β-arrestin versus MAPK.

[3] = test system: human monocytes and macrophages (THP-1 cells); experiment: Cytokine production in THP-1 monocytes and macrophages (ELISA/qRT-PCR); assay type: cell-based; conditions: 100 nM; for cytokine modulation profile (reduction of pro-inflammatory, increase of anti-inflammatory cytokines): monocytes and macrophages; for production of pro-inflammatory cytokines (TNF-α, IFN-γ, IL-1β, IL-6): unstimulated monocytes and macrophages, 24 h
Experimental: Six representative CB2R agonists (16i, 16j, 18e, 18f, 18o, and 18p) were evaluated for their ability to modulate the production of key pro- (e.g., TNF-α, IFN-γ, IL-1β, IL-6) and anti-inflammatory (e.g., IL-4, IL-10) cytokines in human monocytes and macrophages, where CB2R is abundantly expressed. The experiments were performed both in basal and LPS-activated states and would allow to gain insight into how these compounds affect circulating leukocytes (monocytes) and tissue-resident cells (macrophages). To mimic an inflammatory environment, both cell types were also treated with LPS, enabling an assessment of the anti-inflammatory potential of the compounds in both resting and activated states. Alongside the selected ligands, the study included HU308, a well-established CB2R-selective agonist known for its anti-inflammatory properties, and SR144528, a CB2R-selective antagonist. SR144528 was used alone and in combination with the test compounds to confirm that the observed effects were specifically mediated through CB2R activation.
8 Cytokines levels in human monocytes (A, B) and macrophages (C, D) treated with CB2R ligands. THP-1 cells either untreated (A-B) or treated (C, D) with 0.01 μM PMA for 48 h to differentiate them into macrophages, were incubated for additional 24 h in the absence (A, C) or presence of 10 μg/mL LPS (B, D), without (Ctrl) or with the CB2R reference agonist HU308, the reference antagonist SR144528 and the CB2R ligands 16i, 16j, 18e, 18f, 18o, 18p at 100 nM. All the compounds were tested alone (solid bars) and in the presence of the CB2R antagonist SR144528 (striped bars). Cytokine levels were measured by ELISA coupled with qRT-PCR. Data are means ± SD (n = 3). Two-way ANOVA followed by Tukey’s posthoc test was applied. *p < 0.05; **p < 0.01; ***p < 0.001; ****p < 0.0001; * indicates vs Ctrl.
The amount of cytokines was measured in 5 μL of supernatants, derived from 1 × 10^4 cells, using the ProQuantum immunoassays kits for TNF-α, IFN-γ, IL-1β, IL-6, IL-10, and IL-4 [all from ThermoFisher Scientific (Waltham, MA)] according to the manufacturer’s instructions. The results were expressed as pg/mL based on the titration curved of each kits.

[4] = molecular target: T1, CB2R; experiment: CB2R radioligand binding competition ([3H]CP55,940); set-up: expressed in transfected cells; host or cells: HEK-293T (HEK-CB2 cell line); conditions: for Ki: displacement of [3H]CP 55,940, membranes of HEK-293T cells, n = 3; for SI Ki CB1R/Ki CB2R: selectivity index, affinity ratio
[5] = Drug transport (BBB permeability) in Caco-2 monolayer; assay type: in vitro ADME; conditions: human; for efflux ratio at 120 min: Caco-2, bidirectional permeability ratio, read-out: P app (BA/AB); for Papp A→B at 120 min / Papp B→A at 120 min: Caco-2 monolayer, 1 × 10^–4 M
Experimental: To validate the early predictions from the CNS-MPO and BOILED-egg models (Figure ), we experimentally assessed the BBB permeability and P-gp interaction of the selected CB2R agonists. For these studies, two pairs of amide enantiomers (18p and 18o, 18e, and 18f) were selected, and the evaluations were conducted using established protocols previously published by our group. Key parameters measured included the permeability coefficients (P appBA and P appAB), the bidirectional permeability ratio (BA/AB), and the degree of interaction with P-gP, as detailed in Table .
Caco-2 cells were grown in Dulbecco’s high-glucose modified eagle medium, composed of 10% fetal bovine serum, 2 mM of glutamine, 100 U/mL of penicillin, and 0.1 mg/mL of streptomycin (all components purchased from Corning, Milan, Italy) in a humidified incubator at 37 °C with a 5% CO2 atmosphere. The experiment started with the preparation of the Caco-2 monolayer, which occurred by seeding the cells (20,000/well) in Millicell plates (Millipore, Milan, Italy). Its growth was followed for 21 days by changing the medium occasionally and measuring its transepithelial electrical resistance (TEER) daily using an epithelial voltohmmeter (Millicell-ERS) until a TEER value >240 ohms × cm^2 was reached. After 21 days, the plate was washed twice with Hank’s balanced salt solution (HBSS) (Invitrogen). After the second wash, the wells were filled with buffer, and the plate was kept at 37 °C for 30 min. After the incubation time, the HBSS buffer was replaced with the solutions of the compounds to be tested at a concentration of 1 × 10^–4 M. The plates were placed in an incubator at 37 °C for 120 min. The apparent permeability (P app), in units of nm s^–1, was calculated as previously reported. ,

Chain of CB1R (P21554 whole entry): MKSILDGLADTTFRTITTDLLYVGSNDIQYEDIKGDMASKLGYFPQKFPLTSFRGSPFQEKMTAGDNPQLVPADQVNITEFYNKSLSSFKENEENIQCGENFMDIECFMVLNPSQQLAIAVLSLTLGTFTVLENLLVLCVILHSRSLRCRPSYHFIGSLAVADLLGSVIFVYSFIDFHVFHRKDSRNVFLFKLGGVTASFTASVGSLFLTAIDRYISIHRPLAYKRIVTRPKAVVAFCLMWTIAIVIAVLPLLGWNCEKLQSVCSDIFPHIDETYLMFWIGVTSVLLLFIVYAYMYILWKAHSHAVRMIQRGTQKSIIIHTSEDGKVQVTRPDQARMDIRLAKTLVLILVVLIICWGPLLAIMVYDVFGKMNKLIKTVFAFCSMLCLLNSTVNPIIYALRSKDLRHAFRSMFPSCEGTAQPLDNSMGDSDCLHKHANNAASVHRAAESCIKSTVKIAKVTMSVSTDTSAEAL

SMILES: CCCCCn1nc(C(=O)N2CCCC[C@H]2C(=O)OC)c2ccccc21 [16i]
- Ki ([1]; displacement of [3H]CP 55,940, membranes of CHO-CB1 C3 cells, n = 3): 685 ± 21 nM
- EC50 [2]: 1.09 ± 0.01 nM
- Emax [2]: 48%
- cytokine modulation profile (reduction of pro-inflammatory, increase of anti-inflammatory cytokines) [3]: significant reduction
- production of pro-inflammatory cytokines (TNF-α, IFN-γ, IL-1β, IL-6) [3]: significantly reduced
- Ki [4]: 10.9 ± 0.5 nM
- SI Ki CB1R/Ki CB2R [4]: 62

SMILES: CCCCCn1nc(C(=O)N2CCCC[C@@H]2C(=O)OC)c2ccccc21 [16j]
- CB1R % at 1 μM [1]: 3%
- EC50 [2]: 0.28 ± 0.02 nM
- Emax [2]: 65%
- cytokine modulation profile (reduction of pro-inflammatory, increase of anti-inflammatory cytokines) [3]: significant reduction
- production of pro-inflammatory cytokines (TNF-α, IFN-γ, IL-1β, IL-6) [3]: significantly reduced
- Ki [4]: 89.1 ± 3.1 nM
- SI Ki CB1R/Ki CB2R [4]: >100

SMILES: NC(=O)[C@@H]1CCCCN1C(=O)c1cn(CC2CCCCC2)c2ccccc12 [18e]
- CB1R % at 1 μM [1]: 19%
- EC50 [2]: 0.4 ± 0.08 nM
- Emax [2]: 120%
- cytokine modulation profile (reduction of pro-inflammatory, increase of anti-inflammatory cytokines) [3]: limited efficacy
- production of pro-inflammatory cytokines (TNF-α, IFN-γ, IL-1β, IL-6) [3]: significantly reduced
- efflux ratio at 120 min [5]: 0.51
- Papp A→B at 120 min [5]: 99.5 ×10⁻⁶ cm/s
- Papp B→A at 120 min [5]: 50.6 ×10⁻⁶ cm/s
- Ki [4]: 30.2 ± 1.2 nM
- SI Ki CB1R/Ki CB2R [4]: >100

SMILES: NC(=O)[C@H]1CCCCN1C(=O)c1cn(CC2CCCCC2)c2ccccc12 [18f]
- CB1R % at 1 μM [1]: 11%
- EC50 [2]: 0.08 ± 0.01 nM
- Emax [2]: 88%
- cytokine modulation profile (reduction of pro-inflammatory, increase of anti-inflammatory cytokines) [3]: limited efficacy
- production of pro-inflammatory cytokines (TNF-α, IFN-γ, IL-1β, IL-6) [3]: significantly reduced
- efflux ratio at 120 min [5]: 0.49
- Papp A→B at 120 min [5]: 79.2 ×10⁻⁶ cm/s
- Papp B→A at 120 min [5]: 39.3 ×10⁻⁶ cm/s
- Ki [4]: 96.8 ± 2.6 nM
- SI Ki CB1R/Ki CB2R [4]: >100

SMILES: NC(=O)[C@@H]1CCCCN1C(=O)c1nn(Cc2ccc(F)cc2)c2ccccc12 [18o]
- EC50 [2]: 60.9 ± 2.5 nM
- Emax [2]: 148%
- cytokine modulation profile (reduction of pro-inflammatory, increase of anti-inflammatory cytokines) [3]: significant reduction
- production of pro-inflammatory cytokines (TNF-α, IFN-γ, IL-1β, IL-6) [3]: significantly reduced
- efflux ratio at 120 min [5]: 0.39
- Papp A→B at 120 min [5]: 72.7 ×10⁻⁶ cm/s
- Papp B→A at 120 min [5]: 29 ×10⁻⁶ cm/s
- Ki [4]: 54.6 ± 1.1 nM
- SI Ki CB1R/Ki CB2R [4]: >100

SMILES: NC(=O)[C@H]1CCCCN1C(=O)c1nn(Cc2ccc(F)cc2)c2ccccc12 [18p]
- CB1R % at 1 μM [1]: 2%
- EC50 [2]: 326 ± 4 nM
- Emax [2]: 77%
- cytokine modulation profile (reduction of pro-inflammatory, increase of anti-inflammatory cytokines) [3]: significant reduction
- production of pro-inflammatory cytokines (TNF-α, IFN-γ, IL-1β, IL-6) [3]: significantly reduced
- efflux ratio at 120 min [5]: 0.35
- Papp A→B at 120 min [5]: 63.2 ×10⁻⁶ cm/s
- Papp B→A at 120 min [5]: 21.9 ×10⁻⁶ cm/s
- Ki [4]: 120 ± 5 nM
- SI Ki CB1R/Ki CB2R [4]: >100
